Source: US11304974B2, “Nanosystems comprising silver and antibiotics and their use for the treatment of bacterial infections” (priority 2017, dated 2022)
Read-outs that look alike come from different tables or passages of the source.

Columns and labels:
[1] = system: S. epidermidis Se-1 (strain 14); experiment: Checkerboard synergy test collargol-vancomycin (Example 5); settings: Staphylococcus epidermidis, read-out: MIC (product alone, Checkerboard test)
Experimental: (§3) To determine the existence of synergistic activity between collargol and vancomycin, a checkerboard test using plates having a “U”-shaped bottom (TPP) of 96 wells was used. Double subinhibitory serial dilutions of the two antimicrobials were prepared, so that the concentration of collargol decreased vertically (up-down) and the concentration of vancomycin decreased horizontally (left-right).
(§4) To quantify the synergistic activity of the two combined compounds, the Index fractional inhibitory concentration (IFIC) parameter was used. This index relates MIC of the antimicrobial 1 with the antimicrobial 2 alone and in combination, according to the following formula:
(§5) It is considered that there is synergistic effect if the IFIC value is <0.5.
(§6) The procedure was as follows: • Preparation of fresh cultures of each of the strains on blood agar (37° C., 24 h). […] The well wherein the minimum value of IFIC is obtained is chosen.

[2] = system: Gram Positive Bacteria; experiment: Silver-antibiotics interaction study, MicroScan (Example 4); assay type: cell-based, S. aureus; settings: subinhibitory colloidal silver (½ or 1/10 MIC)
Experimental: The effect of subinhibitory concentrations of colloidal silver (namely, ½ and 1/10 dilution of the MIC obtained in Example 3) in the presence of different types of antibiotics was tested.
For this, an automated equipment MicroScan AutoScan 4 (Siemens) was used, using Gram negative (Becman Coulter NM37) and Gram positive (Becman Coulter PM28) cards.
Each of these broths served as inoculum for the cards with antibiotics (for each strain, thus 3 cards were prepared). • Incubating the plates with antibiotics (in presence and absence of silver) at 37° C. for 24 h. • Reading the cards by use of LabPro software, and interpretation of the obtained values of MIC (determine if the silver reduces the initial MCI of each antibiotic).

[3] = system: S. aureus Sa-12 (strain 11); experiment: Checkerboard synergy test collargol-vancomycin (Example 5); settings: Staphylococcus aureus, read-out: MIC (product alone, Checkerboard test)
Experimental: as §3, §4, §5, §6

[4] = system: S. aureus Sa-11 (strain 10); experiment: as above; settings: Staphylococcus aureus, read-out: MIC (product alone, Checkerboard test)
Experimental: as §3, §4, §5, §6

[5] = system: S. aureus Sa-11 (strain 10); experiment: Epsilometry E-test, absence and presence of silver (Example 5); assay type: cell-based; settings: Staphylococcus aureus
Experimental: (§1) In order to evaluate the synergy of collargol-antibiotics an epsilometry E-test was carried out. Said test is based on the agar diffusion method and relates to using a strip with a predefined steady gradient of 15 concentrations of the antibiotic being tested. After strain growth, an elliptical inhibition halo, being the MIC the antibiotic concentration corresponding to the cutting point.
(§2) It was performed for the antibiotics vancomycin, linezolid and tedizolid, in absence and presence of silver (½ and 1/10 MIC).

[6] = system: S. epidermidis Se-1 (strain 14); experiment: as above; assay type: cell-based; settings: Staphylococcus epidermidis
Experimental: as §1, §2

[7] = system: S. aureus Sa-9 (strain 8); experiment: as above; assay type: cell-based; settings: Staphylococcus aureus
Experimental: as §1, §2

[8] = system: S. aureus Sa-12 (strain 11); experiment: as above; assay type: cell-based; settings: Staphylococcus aureus
Experimental: as §1, §2

[9] = system: S.aureus ATCC 700698 Sa-SARM (strain 15); experiment: as above; assay type: cell-based; settings: Staphylococcus aureus
Experimental: as §1, §2

[10] = system: S. aureus Sa-3 (strain 3); experiment: as above; assay type: cell-based; settings: Staphylococcus aureus
Experimental: as §1, §2

[11] = system: S. aureus Sa-10 (strain 9); experiment: as above; assay type: cell-based; settings: Staphylococcus aureus
Experimental: as §1, §2

[12] = system: S. aureus Sa-14 (strain 13); experiment: as above; assay type: cell-based; settings: Staphylococcus aureus, strain 13 (S. aureus Sa-14)
Experimental: as §1, §2

[13] = system: S. aureus Sa-13 (strain 12); experiment: as above; assay type: cell-based; settings: Staphylococcus aureus
Experimental: as §1, §2

[14] = system: S. aureus Sa-1 (strain 1); experiment: as above; assay type: cell-based; settings: Staphylococcus aureus
Experimental: as §1, §2

[15] = system: S. aureus Sa-3 (strain 3); experiment: Checkerboard synergy test collargol-vancomycin (Example 5); settings: Staphylococcus aureus, read-out: MIC (product alone, Checkerboard test)
Experimental: as §3, §4, §5, §6

[16] = system: S. aureus Sa-10 (strain 9); experiment: as above; settings: Staphylococcus aureus, read-out: MIC (product alone, Checkerboard test)
Experimental: as §3, §4, §5, §6

[17] = read-out: MIC (E-test) MH (without silver)
[18] = read-out: MIC (E-test) MH-1/10 MIC
[19] = read-out: MIC (E-test) MH-½ MIC

With `CN[C@H](CC(C)C)C(=O)N[C@H]1C(=O)N[C@@H](CC(N)=O)C(=O)N[C@H]2C(=O)N[C@H]3C(=O)N[C@H](C(=O)N[C@H](C(=O)O)c4cc(O)cc(O)c4-c4cc3ccc4O)[C@H](O)c3ccc(c(Cl)c3)Oc3cc2cc(c3O[C@@H]2O[C@H](CO)[C@@H](O)[C@H](O)[C@H]2O[C@H]2C[C@](C)(N)[C@H](O)[C@H](C)O2)Oc2ccc(cc2Cl)[C@H]1O` [Vancomycin] as the compound, how does the MIC [1] read?
The MIC was 1 µg/mL.

And the “Effect of silver on the strain's sensitivity to the antibiotic” value [2]?
The value was “improved sensitivity”.

What about the MIC [3] of the same compound?
The MIC was 1 µg/mL.

What about the MIC [4] of the same compound?
The MIC was 1 µg/mL.

What about the MIC [5, 17] of the same compound?
Its MIC is 0.5 µg/mL.

What about the MIC [5, 18] of the same compound?
Its MIC is 0.38 µg/mL.

What about the MIC [5, 19] of the same compound?
Its MIC is 0.25 µg/mL.

What about the MIC [6, 17] of the same compound?
Its MIC is 0.75 µg/mL.

And the MIC [6, 18]?
The MIC was 0.5 µg/mL.

What about the MIC [6, 19] of the same compound?
The MIC was 0.38 µg/mL.

And the MIC [7, 17]?
Its MIC is 1 µg/mL.

And the MIC [7, 18]?
Its MIC is 1 µg/mL.

And the MIC [7, 19]?
Its MIC is 0.75 µg/mL.

What about the MIC [8, 17] of the same compound?
The MIC was 1 µg/mL.

And the MIC [8, 18]?
Its MIC is 1 µg/mL.

What about the MIC [8, 19] of the same compound?
Its MIC is 0.5 µg/mL.

What about the MIC ([9]; ATCC700698, read-out: MIC (E-test) MH (without silver)) of the same compound?
The MIC was 1.5 µg/mL.

And the MIC ([9]; ATCC700698, read-out: MIC (E-test) MH-1/10 MIC)?
Its MIC is 1 µg/mL.

And the MIC ([9]; ATCC700698, read-out: MIC (E-test) MH-½ MIC)?
Its MIC is 1 µg/mL.

What about the MIC [10, 17] of the same compound?
The MIC was 0.75 µg/mL.

What about the MIC [10, 18] of the same compound?
Its MIC is 0.75 µg/mL.

What about the MIC [10, 19] of the same compound?
The MIC was 0.38 µg/mL.

And the MIC [11, 17]?
The MIC was 1 µg/mL.

And the MIC [11, 18]?
Its MIC is 1 µg/mL.

What about the MIC [11, 19] of the same compound?
Its MIC is 0.38 µg/mL.

What about the MIC ([12]; MH agar with 1/10 MIC of colargol, read-out: MIC (E-test) MH-1/10 MIC) of the same compound?
The MIC was 0.38 µg/mL.

What about the MIC ([12]; MH agar with ½ MIC of colargol, read-out: MIC (E-test) MH-½ MIC) of the same compound?
Its MIC is 0.25 µg/mL.

And the MIC ([12]; MH agar without silver, read-out: MIC (E-test) MH (without silver))?
Its MIC is 0.38 µg/mL.

And the MIC [13, 17]?
The MIC was 0.5 µg/mL.

And the MIC [13, 18]?
Its MIC is 0.5 µg/mL.

What about the MIC [13, 19] of the same compound?
Its MIC is 0.38 µg/mL.

What about the MIC [14, 17] of the same compound?
The MIC was 0.5 µg/mL.

And the MIC [14, 18]?
The MIC was 0.5 µg/mL.

And the MIC [14, 19]?
Its MIC is 0.38 µg/mL.

And the MIC [15]?
The MIC was 1 µg/mL.

And the MIC [16]?
The MIC was 1 µg/mL.
